In brackets after ≈: the same amount, converted by molar mass. Where only a bound is given, the exact number is not on record here.

Series [1] has as its system A. baumannii ATCC 17978 and resistant mutants. Briefly: microbe, parasite or virus in culture. The class given is cell-based, Acinetobacter baumannii. How it is done: Antimicrobial Susceptibility Assay. The in vitro antimicrobial activity of all compounds/antibiotics against a panel of bacteria was evaluated by microbroth dilution method in accordance with the Clinical and Laboratory Standards Institute (CLSI) guidelines (using ATCC strains as quality control strains) (54). Overnight grown bacterial cultures were diluted in saline to achieve a 0.5 McFarland turbidity, followed by 1:50 dilution in Mueller-Hinton broth (MHB) for inoculation to a final concentration of approximately 5×10^5 CFU/mL. […] The lowest concentration that prevented the visible growth of bacteria was defined as the MIC for each antimicrobial agent. The broth with or without bacterial cells was used as positive or negative control, respectively.
(§1) Development of Resistance Study. […] Tobramycin and colistin were included as controls. At 24-hour intervals, the cultures were assessed for growth. […] This serial passaging was repeated for 8 days.

Series [2] has as its system MDR/XDR P. aeruginosa, Acinetobacter baumannii, Escherichia coli, Klebsiella pneumoniae, and Enterobacter cloacae. The class given is cell-based. How it is done: Next, we investigated whether tobramycin by itself would potentiate novobiocin against Gram-negative bacteria.
Checkerboard Assay. Combination studies with different antibiotics were performed in 96-well plates as previously described (19). Briefly, the antibiotic of interest was serially diluted in MHB along the abscissa while the adjuvant (tobramycin homodimer) was serially diluted in MHB along the ordinate. This creates a 10×7 matrices wherein each well consists of a combination of different antibiotic and adjuvant concentrations. Overnight grown bacterial cultures were diluted in saline to achieve a 0.5 McFarland turbidity, followed by 1:50 dilution in Mueller-Hinton broth (MHB) for inoculation to a final concentration of approximately 5×10^5 CFU/mL. […] MIC was recorded as wells with the lowest concentration of drugs with no bacterial growth. The fractional inhibitory concentration (FIC) for each antibiotic was calculated by dividing the MIC of the antibiotic in the presence of adjuvant by the MIC of the antibiotic alone. Similarly, the FIC of adjuvant was calculated by dividing the MIC of the adjuvant in the presence of antibiotic by the MIC of the adjuvant alone. FIC index is the sum of both FICs. FIC indices of ≤0.5 were deemed synergistic; >0.5-4, no interaction; and >4, antagonistic.

Series [3] has as its system P. aeruginosa PAO1. Briefly: Outer membrane permeabilization assay (NPN uptake). The class given is cell-based, Pseudomonas aeruginosa. Here is the method: Outer Membrane Permeabilization Assay. […] Briefly, an overnight grown P. aeruginosa PAO1 culture was subcultured (1 in 100) in fresh LB broth and grown to a mid-logarithmic phase (approximately 2 h, OD600=0.5-0.6). The cells were harvested by centrifuging for 10 min at 1000 g and room temperature, washed twice in PBS, and resuspended in half volume of PBS. This suspension was used in standard microtiter plate assay. […] PMBN, a known outer membrane permeabilizer, served as a positive control while cells +NPN (without test compounds) served as a negative control. Four independent replicates were conducted, and the data were corrected for any background fluorescence.

In series [4] the test system is P. aeruginosa PAO1 and efflux deficient mutants, MDR/XDR isolates. Briefly: microbe, parasite or virus in culture. The class given is cell-based, Pseudomonas aeruginosa. The conditions noted are these: Pseudomonas aeruginosa. Here is the method:
Antimicrobial Susceptibility Assay. The in vitro antimicrobial activity of all compounds/antibiotics against a panel of bacteria was evaluated by microbroth dilution method in accordance with the Clinical and Laboratory Standards Institute (CLSI) guidelines (using ATCC strains as quality control strains) (54). […] The broth with or without bacterial cells was used as positive or negative control, respectively.

In series [5] the test system is A. baumannii ATCC 17978. The series is described as follows: microbe, parasite or virus in culture. The class given is cell-based, Acinetobacter baumannii. The conditions noted are these: for fold change in MIC: after 7 days of serial passaging. How it is done: as §1
The test system of series [6] is P. aeruginosa. The series is described as follows: Checkerboard assay (antibiotic + adjuvant combination MIC). The class given is cell-based, Pseudomonas aeruginosa.
For series [7], the system named is porcine erythrocytes.
Description: Hemolytic Assay. The hemolytic activities of the newly synthesized compounds were determined and quantified as the amount of hemoglobin released by lysing porcine erythrocytes. […] The final cell concentration used was 3×10^8 cells/mL. Compounds were serially diluted with PBS and added to wells in a 96-well plate at twice the desired concentrations. […] Intact erythrocytes were subsequently pelleted by centrifuging at 1000 g at 4° C. for 10 mins, and the supernatants were transferred to a new 96-well plate. […] Blood cells in PBS (0% hemolysis) and 0.1% Triton X-100 (100% hemolysis) were used as negative and positive controls, respectively. Percent hemolysis was calculated as [% hemolysis=(X−0%)/(100%−0%)], where X is the optical density values of the compounds at different concentrations (49).
The subject of series [8] is Galleria mellonella. The series is described as follows: Galleria mellonella tolerability study. The class given is in vivo. The conditions noted are these: 100 mg/kg single dose; after 96 h (4 days). Here is the method:
Galleria mellonella In vivo Larvae-Infection Model. In vivo synergistic effects were determined using Galleria mellonella infection model, as previously described (49). Briefly, larvae were purchased from The Worm Lady Live Feeder (ON, Canada), stored in their natural habitat at 16° C., and used within 10 days of delivery. The larvae (average weight of 250 mg) were used for tolerability and efficacy studies. Tolerability study was performed by injecting a 10 μL aliquot of antimicrobial agents only at concentrations equivalent to 100 mg/kg or 200 mg/kg. The larvae (ten in each group) were incubated at 37° C. and monitored for 96 h. For efficacy studies, the virulence and bacterial load required to kill 100% of the larvae within 24 h (with no treatment) was first determined, which is approximately 10 CFU. Overnight grown culture of respective MDR A. baumannii isolate was standardized to 0.5 McFarland standard and diluted in PBS to a final concentration of 10^3 CFU/mL. A 10 μL aliquot of this solution (˜10 CFU) was injected into each larva and incubated for 3 h at 37° C. […] Larvae treated with 10 μL of PBS or high concentrations of test antibiotics served as negative and positive control, respectively. The larvae were incubated at 37° C. in Petri dishes lined with filter paper and scored for survivability every 6 h for up to 36 h. […]

Where [9] appears, read: Acinetobacter baumannii, ATCC17978, 18 h, Mutant C (seven serial passages, sub-MICs novobiocin + 7.1 μM compound 1).
Where [10] appears, read: Acinetobacter baumannii, ATCC17978, Mutant A (seven serial passages, sub-MICs novobiocin).
Setting [11] is: Acinetobacter baumannii, ATCC17978, Mutant B (seven serial passages, sub-MICs colistin).
The mark [12] stands for this setting: Acinetobacter baumannii, ATCC17978, Wild-type A. baumannii ATCC 17978.
The mark [13] stands for this setting: tobramycin-resistant MDR/XDR isolates.

Take `NC[C@H]1O[C@H](O[C@H]2[C@H](O)[C@@H](O[C@H]3O[C@H](CO)[C@@H](O)[C@H](N)[C@H]3O)[C@H](N)C[C@@H]2N)[C@H](N)C[C@@H]1O` [Tobramycin]: the MIC in series [1] (setting [9]) was 1 µg/mL; in series [1] (setting [10]), 1 µg/mL (≈ 2.14 µM); in series [1] (setting [11]), 0.25 µg/mL (≈ 0.535 µM); in series [1] (setting [12]), 1 µg/mL (≈ 2.14 µM); in series [4], 1 µg/mL (≈ 2.14 µM); in series [4] (PAO200 (first column so headed)) it was 1 µg/mL (≈ 2.14 µM). In addition, the MIC stood at 1 µg/mL (≈ 2.14 µM) in series [4] (PAO200 (second column so headed)) and 512 µg/mL (≈ 1100 µM) in series [5] (Acinetobacter baumannii, ATCC17978, 168 h, read-out: MIC after serial passaging). In series [2] (tobramycin-susceptible and tobramycin-resistant Gram-negative bacteria strains), the FICI with novobiocin is on record as 0.75. Besides, in series [3], the “outer membrane permeabilization (NPN fluorescence)” value was “weak fluorescence”. In addition, the “fold change in MIC” value in series [5] was 512 fold. Also, the “interaction with antibiotics (checkerboard)” value in series [6] (PAO1, all antibiotics tested except tobramycin, vancomycin and colistin) was “not synergistic”. In series [6] (setting [13]), the “FICI with ceftazidime or aztreonam” value was 0.56-0.75. In addition, the “tobramycin concentration at which synergy with imipenem was observed” value in series [6] (setting [13]) is not below 100 µM. In addition, the “FICI with aztreonam, ceftazidime and imipenem” value was 0.75 in series [6] (tobramycin-susceptible MDR isolates) and 0.75-1.00 in series [6] (wildtype P. aeruginosa).

As for `NC[C@H]1O[C@H](O[C@H]2[C@H](OCCCCCCn3cc(CCCCO[C@@H]4[C@@H](O[C@H]5O[C@H](CO)[C@@H](O)[C@H](N)[C@H]5O)[C@H](N)C[C@H](N)[C@H]4O[C@H]4O[C@H](CN)[C@@H](O)C[C@H]4N)nn3)[C@@H](O[C@H]3O[C@H](CO)[C@@H](O)[C@H](N)[C@H]3O)[C@H](N)C[C@@H]2N)[C@H](N)C[C@@H]1O.O=C(O)C(F)(F)F.O=C(O)C(F)(F)F.O=C(O)C(F)(F)F.O=C(O)C(F)(F)F.O=C(O)C(F)(F)F.O=C(O)C(F)(F)F.O=C(O)C(F)(F)F.O=C(O)C(F)(F)F.O=C(O)C(F)(F)F.O=C(O)C(F)(F)F` [Compound 2, Tobramycin Homodimer 2], the “hemolysis of porcine erythrocytes” value in series [7] is “non-hemolytic”.

For the molecule `NC[C@H]1O[C@H](O[C@H]2[C@H](OCCCCCCCCn3cc(CCCCO[C@@H]4[C@@H](O[C@H]5O[C@H](CO)[C@@H](O)[C@H](N)[C@H]5O)[C@H](N)C[C@H](N)[C@H]4O[C@H]4O[C@H](CN)[C@@H](O)C[C@H]4N)nn3)[C@@H](O[C@H]3O[C@H](CO)[C@@H](O)[C@H](N)[C@H]3O)[C@H](N)C[C@@H]2N)[C@H](N)C[C@@H]1O.O=C(O)C(F)(F)F.O=C(O)C(F)(F)F.O=C(O)C(F)(F)F.O=C(O)C(F)(F)F.O=C(O)C(F)(F)F.O=C(O)C(F)(F)F.O=C(O)C(F)(F)F.O=C(O)C(F)(F)F.O=C(O)C(F)(F)F.O=C(O)C(F)(F)F` [Compound 3, Tobramycin Homodimer 3], in series [7], the “hemolysis of porcine erythrocytes” value is on record as “non-hemolytic”.

In the case of Colistin, the “larvae killed (mortality)” value in series [8] is listed as 90%. Also, the MIC in series [1] (Mutant A (seven serial passages, sub-MICs novobiocin)) was determined as 8 µg/mL; in series [1] (Mutant B (seven serial passages, sub-MICs colistin)), 1024 µg/mL; in series [1] (Mutant C (seven serial passages, sub-MICs novobiocin + 7.1 μM compound 1)), 0.031 µg/mL; in series [1] (Wild-type A. baumannii ATCC 17978) it was 0.063 µg/mL. Also, the “fold change in MIC” value in series [5] came out at 1024 fold.

In the case of `CC(C)(O/N=C(\C(=O)N[C@@H]1C(=O)N2C(C(=O)[O-])=C(C[n+]3ccccc3)CS[C@H]12)c1csc(N)n1)C(=O)O` [Ceftazidime, reference compound], the MIC was found to be 16 µg/mL in series [1] (setting [9]), 32 µg/mL (≈ 58.5 µM) in series [1] (setting [10]), 1 µg/mL (≈ 1.83 µM) in series [1] (setting [11]) and 16 µg/mL (≈ 29.3 µM) in series [1] (setting [12]). In addition, the synergy with novobiocin result in series [2] (Gram-negative bacteria) is “did not show any synergy”. Moreover, in series [6] (P. aeruginosa PAO1, β-lactam antibiotic alone), the MIC Alone turned out to be 2 µg/mL. In addition, the MIC of CAZ alone came to 512 µg/mL in series [6] (PA 259-96918); 32 µg/mL in series [6] (PA 260-97103); 16 µg/mL in series [6] (PA 262-101856); 128 µg/mL in series [6] (PA 264-104354); 64 µg/mL in series [6] (PA 86052); 64 µg/mL in series [6] (PA 88949). For the same molecule, the MIC of CAZ alone in series [6] (PA 91433) turned out to be 4 µg/mL; in series [6] (PA 100036) it was 8 µg/mL; in series [6] (PA 101243), 64 µg/mL; in series [6] (PA 101885), 8 µg/mL; in series [6] (PA 107092), 128 µg/mL; in series [6] (PA 108590), 32 µg/mL. Moreover, the MIC of CAZ alone in series [6] (PA 109084) was 64 µg/mL; in series [6] (PA 114228), 8 µg/mL; in series [6] (PAO1), 2 µg/mL; in series [6] (PAO200 (efflux-deficient)) it was 1 µg/mL; in series [6] (PAO750 (efflux-deficient)) it was 0.5 µg/mL.

(Values after US20220249441A1, “Homodimeric Tobramycin Adjuvant Repurposes Novobiocin as an Effective Antibacterial Agent Against Gram-Negative Bacteria” (priority 2019, published 2022).)
